Results as given in EP3046573B1, “AMYLIN ANALOGUES” (Zealand Pharma A/S, priority 2013, dated 2015).
Numbered stars: 1 amine (or outer) side, 2 acyl side, 3 side chain; on linkers, the order of the positions; unused ones are H or OH. Bridge positions count the residues as written; N and C are the ends. Square brackets hold non-standard residues; d marks the D form. Peptide text beside a SMILES is read from it. * marks the point of attachment. C20 diacid = O=C(O)CCCCCCCCCCCCCCCCCCC(=O)*; γGlu = O=C(O)[C@H](CCC(=O)[*:2])N[*:1]; NMeI = CC[C@H](C)[C@H](NC)C(=O)O; Sar = CNCC(=O)O

What was measured:
[1] = target: T1, human calcitonin receptor (hCTR2) (Homo sapiens, UniProt P30988); assay: hCTR2 assay: induction of cAMP (AlphaScreen cAMP Assay kit) in COS7 cells expressing hCTR2; format: cell-based; details: cAMP induction in COS7 cells expressing hCTR2; average of a minimum of 3 determinations; read-out: hCTR2 EC50
T1 construct: expressed in transfected cells
T1 sequence (P30988 25-474): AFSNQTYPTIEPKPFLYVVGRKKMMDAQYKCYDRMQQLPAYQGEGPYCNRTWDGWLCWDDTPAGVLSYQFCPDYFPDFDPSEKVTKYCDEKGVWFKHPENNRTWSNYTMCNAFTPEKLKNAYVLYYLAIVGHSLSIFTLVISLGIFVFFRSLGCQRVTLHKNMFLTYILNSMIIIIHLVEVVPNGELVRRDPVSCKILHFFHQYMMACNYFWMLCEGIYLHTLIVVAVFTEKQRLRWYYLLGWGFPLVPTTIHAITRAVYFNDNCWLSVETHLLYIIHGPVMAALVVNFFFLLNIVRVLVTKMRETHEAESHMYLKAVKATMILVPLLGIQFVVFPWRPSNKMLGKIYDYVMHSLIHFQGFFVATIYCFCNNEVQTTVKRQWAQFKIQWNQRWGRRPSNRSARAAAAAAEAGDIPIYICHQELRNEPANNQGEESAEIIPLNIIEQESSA
In short: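 Stable RAMP-naive COS7 clone expressing hCTR2 was stimulated with increasing peptide concentrations in Tyrode buffer (pH 7.4) with 100 µM IBMX and 0.1% casein for 15 min at 37° C. Cells were lysed and cAMP measured by AlphaScreen. EC50 and efficacy relative to pramlintide came from 4PL curve fits.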

[2] = Solubility assessment (turbidity absorbance at 325 nm); format: physicochemical; details: stock 2 mg/ml diluted 1:1, ambient temperature (typically 25°C), n=1; for Solubility, Acetate buffer pH 4: 100 mM acetate buffer pH 4.0; for Solubility, Acetate buffer pH 5: 100 mM acetate buffer pH 5.0; for Solubility, Histidine buffer pH 6: 100 mM histidine buffer pH 6.0; for Solubility, Histidine buffer pH 7: 100 mM histidine buffer pH 7.0; for Solubility, Phosphate buffer pH 6: 100 mM phosphate buffer pH 6.0; for Solubility, Phosphate buffer pH 7: 100 mM phosphate buffer pH 7.0; for Solubility, Phosphate buffer pH 7.5: 100 mM phosphate buffer pH7.5
In short: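 Peptide stock (2 mg/ml, water pH 2.5) diluted 1:1 into 100 mM acetate (pH 4.0, 5.0), histidine (pH 6.0, 7.0) or phosphate (pH 6.0–7.5) buffer; absorbance at 325 nm read at about 25°C, n=1. A325 ≤ 0.02 taken as solubility ≥ 1 mg/ml.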

[3] = target: T2, human amylin receptor 3 (hAMYR3) consisting of hCTR2 co-expressed with human Receptor Activity Modifying Protein 3 (hRAMP3) (Homo sapiens, UniProt O60896+P30988); assay: hAMYR3 assay: induction of cAMP (AlphaScreen cAMP Assay kit) in COS7 cells expressing hAMYR3; format: cell-based; details: cAMP induction in COS7 cells expressing hAMYR3; average of a minimum of 3 determinations; read-out: hAMY R3 EC50
T2 construct: expressed in transfected cells
T2 sequence (P30988 25-474): T1 sequence (P30988 25-474)
T2 sequence (O60896 24-148 partner): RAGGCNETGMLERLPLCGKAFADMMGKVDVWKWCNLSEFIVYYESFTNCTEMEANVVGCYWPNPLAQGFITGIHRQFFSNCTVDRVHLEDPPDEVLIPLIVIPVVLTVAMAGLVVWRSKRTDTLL
In short: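 Stable COS7 clone co-expressing hCTR2 and hRAMP3, stimulated 15 min at 37° C with increasing peptide in Tyrode buffer pH 7.4 with 100 µM IBMX and 0.1% casein. cAMP measured by AlphaScreen after lysis; EC50 and % efficacy versus pramlintide from 4PL fit.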

Row | EC50 [1] [nM] | Solubility, Acetate buffer pH 4 [2] | Solubility, Acetate buffer pH 5 [2] | Solubility, Histidine buffer pH 6 [2] | Solubility, Histidine buffer pH 7 [2] | Solubility, Phosphate buffer pH 6 [2] | Solubility, Phosphate buffer pH 7 [2] | Solubility, Phosphate buffer pH 7.5 [2] | EC50 [3] [nM] | Compound
1 | 0.12 | SS (SS indicates solubility ≥ 1mg/ml) | SS (SS indicates solubility ≥ 1mg/ml) | SS (SS indicates solubility ≥ 1mg/ml) | SS (SS indicates solubility ≥ 1mg/ml) | SS (SS indicates solubility ≥ 1mg/ml) | SS (SS indicates solubility ≥ 1mg/ml) | SS (SS indicates solubility ≥ 1mg/ml) | 0.29 | CC[C@H](C)[C@@H](C(=O)N[C@@H](CC(C)C)C(=O)N[C@@H](CO)C(=O)N[C@@H](CO)C(=O)N[C@H](C(=O)N[C@@H](CCC(=O)O)C(=O)N[C@H](C(=O)NCC(=O)N[C@@H](CO)C(=O)N[C@@H](CCC(=O)O)C(=O)N[C@H](C(=O)N1CCC[C@H]1C(N)=O)[C@@H](C)O)C(C)C)[C@@H](C)O)N(C)C(=O)[C@H](C)NC(=O)CN(C)C(=O)[C@H](Cc1ccccc1)NC(=O)[C@H](CO)NC(=O)[C@H](CO)NC(=O)[C@H](CO)NC(=O)[C@H](CO)NC(=O)[C@H](CCCNC(=N)N)NC(=O)[C@H](Cc1c[nH]cn1)NC(=O)[C@H](CC(C)C)NC(=O)[C@H](Cc1ccccc1)NC(=O)[C@H](CCC(=O)O)NC(=O)[C@H](C)NC(=O)[C@H](CC(C)C)NC(=O)[C@H](CCCNC(=N)N)NC(=O)[C@H](CCC(=O)O)NC(=O)[C@@H](NC(=O)[C@H](C)NC(=O)[C@@H]1CSSC[C@H](NC(=O)[C@H](CCCNC(=N)N)NC(=O)CC[C@H](NC(=O)CCCCCCCCCCCCCCCCCCC(=O)O)C(=O)O)C(=O)N2CCC[C@H]2C(=O)N[C@@H]([C@@H](C)O)C(=O)N[C@@H](C)C(=O)N[C@@H]([C@@H](C)O)C(=O)N1)[C@@H](C)O [Compound 136, [19CD]-isoGlu-RC()PTATC()ATERLAEFLHRSSSSF-Gly(Me)-A-Ile(Me)-LSSTEVGSETP-NH2] ({C20 diacid-γGlu}-RCPTATCATERLAEFLHRSSSSF[Sar]A[NMeI]LSSTEVGSETP-NH2; disulfide 2-7)
2 | 0.24 | SS (SS indicates solubility ≥ 1mg/ml) | SS (SS indicates solubility ≥ 1mg/ml) | SS (SS indicates solubility ≥ 1mg/ml) | SS (SS indicates solubility ≥ 1mg/ml) | SS (SS indicates solubility ≥ 1mg/ml) | SS (SS indicates solubility ≥ 1mg/ml) | SS (SS indicates solubility ≥ 1mg/ml) | 0.86 | CC[C@H](C)[C@@H](C(=O)N[C@@H](CC(C)C)C(=O)N[C@@H](CO)C(=O)N[C@@H](CO)C(=O)N[C@H](C(=O)N[C@@H](CCC(=O)O)C(=O)N[C@H](C(=O)NCC(=O)N[C@@H](CO)C(=O)N[C@@H](CCC(=O)O)C(=O)N[C@H](C(=O)N1CCC[C@H]1C(N)=O)[C@@H](C)O)C(C)C)[C@@H](C)O)N(C)C(=O)[C@H](C)NC(=O)CN(C)C(=O)[C@H](Cc1ccccc1)NC(=O)[C@H](CO)NC(=O)[C@H](CO)NC(=O)[C@H](CO)NC(=O)[C@H](CO)NC(=O)[C@H](CCCNC(=N)N)NC(=O)[C@H](Cc1c[nH]cn1)NC(=O)[C@H](CC(C)C)NC(=O)[C@H](Cc1ccccc1)NC(=O)[C@H](CCC(=O)O)NC(=O)[C@H](C)NC(=O)[C@H](CC(C)C)NC(=O)[C@H](CCCNC(=N)N)NC(=O)[C@H](CCC(=O)O)NC(=O)[C@@H](NC(=O)[C@H](C)NC(=O)[C@@H]1CSSC[C@H](NC(=O)[C@H](CCCNC(=N)N)NC(=O)CC[C@H](NC(=O)CCCCCCCCCCCCCCCCCCC(=O)O)C(=O)O)C(=O)N[C@@H](CC(=O)O)C(=O)N[C@@H]([C@@H](C)O)C(=O)N[C@@H](C)C(=O)N[C@@H]([C@@H](C)O)C(=O)N1)[C@@H](C)O [Compound 137, [19CD]-isoGlu-RC()DTATC()ATERLAEFLHRSSSSF-Gly(Me)-A-Ile(Me)-LSSTEVGSETP-NH2] ({C20 diacid-γGlu}-RCDTATCATERLAEFLHRSSSSF[Sar]A[NMeI]LSSTEVGSETP-NH2; disulfide 2-7)
3 | 0.23 | SS (SS indicates solubility ≥ 1mg/ml) | SS (SS indicates solubility ≥ 1mg/ml) | SS (SS indicates solubility ≥ 1mg/ml) | SS (SS indicates solubility ≥ 1mg/ml) | SS (SS indicates solubility ≥ 1mg/ml) | SS (SS indicates solubility ≥ 1mg/ml) | SS (SS indicates solubility ≥ 1mg/ml) | 0.34 | CC[C@H](C)[C@@H](C(=O)N[C@@H](CC(C)C)C(=O)N[C@@H](CO)C(=O)N[C@@H](CO)C(=O)N[C@H](C(=O)N[C@@H](CCC(=O)O)C(=O)N[C@H](C(=O)NCC(=O)N[C@@H](CO)C(=O)N[C@@H](CCC(=O)O)C(=O)N[C@H](C(=O)N1CCC[C@H]1C(N)=O)[C@@H](C)O)C(C)C)[C@@H](C)O)N(C)C(=O)[C@H](C)NC(=O)CN(C)C(=O)[C@H](Cc1ccccc1)NC(=O)[C@H](CO)NC(=O)[C@H](CO)NC(=O)[C@H](CO)NC(=O)[C@H](CO)NC(=O)[C@H](CCCNC(=N)N)NC(=O)[C@H](Cc1c[nH]cn1)NC(=O)[C@H](CC(C)C)NC(=O)[C@H](Cc1ccccc1)NC(=O)[C@H](CCC(=O)O)NC(=O)[C@H](C)NC(=O)[C@H](CC(C)C)NC(=O)[C@H](CCCNC(=N)N)NC(=O)[C@H](CO)NC(=O)[C@@H](NC(=O)[C@H](C)NC(=O)[C@@H]1CSSC[C@H](NC(=O)[C@H](CCCNC(=N)N)NC(=O)CC[C@H](NC(=O)CCCCCCCCCCCCCCCCCCC(=O)O)C(=O)O)C(=O)N[C@@H](CC(=O)O)C(=O)N[C@@H]([C@@H](C)O)C(=O)N[C@@H](C)C(=O)N[C@@H]([C@@H](C)O)C(=O)N1)[C@@H](C)O [Compound 138, [19CD]-isoGlu-RC()DTATC()ATSRLAEFLHRSSSSF-Gly(Me)-A-Ile(Me)-LSSTEVGSETP-NH2] ({C20 diacid-γGlu}-RCDTATCATSRLAEFLHRSSSSF[Sar]A[NMeI]LSSTEVGSETP-NH2; disulfide 2-7)
